How the values were obtained:
human TLR7 = target: T1, human TLR7 (Homo sapiens, UniProt Q9NYK1); assay: HEK293-Blue-hTLR-7 cells assay; type: cell-based; conditions: HEK293-Blue-hTLR7 cells, R848 stimulation, 20 hrs, SEAP reporter; read-out: HEK/hTLR7 IC50
T1 construct: host or cells: HEK293 (HEK-Blue hTLR7)
T1 sequence (Q9NYK1 27-1049): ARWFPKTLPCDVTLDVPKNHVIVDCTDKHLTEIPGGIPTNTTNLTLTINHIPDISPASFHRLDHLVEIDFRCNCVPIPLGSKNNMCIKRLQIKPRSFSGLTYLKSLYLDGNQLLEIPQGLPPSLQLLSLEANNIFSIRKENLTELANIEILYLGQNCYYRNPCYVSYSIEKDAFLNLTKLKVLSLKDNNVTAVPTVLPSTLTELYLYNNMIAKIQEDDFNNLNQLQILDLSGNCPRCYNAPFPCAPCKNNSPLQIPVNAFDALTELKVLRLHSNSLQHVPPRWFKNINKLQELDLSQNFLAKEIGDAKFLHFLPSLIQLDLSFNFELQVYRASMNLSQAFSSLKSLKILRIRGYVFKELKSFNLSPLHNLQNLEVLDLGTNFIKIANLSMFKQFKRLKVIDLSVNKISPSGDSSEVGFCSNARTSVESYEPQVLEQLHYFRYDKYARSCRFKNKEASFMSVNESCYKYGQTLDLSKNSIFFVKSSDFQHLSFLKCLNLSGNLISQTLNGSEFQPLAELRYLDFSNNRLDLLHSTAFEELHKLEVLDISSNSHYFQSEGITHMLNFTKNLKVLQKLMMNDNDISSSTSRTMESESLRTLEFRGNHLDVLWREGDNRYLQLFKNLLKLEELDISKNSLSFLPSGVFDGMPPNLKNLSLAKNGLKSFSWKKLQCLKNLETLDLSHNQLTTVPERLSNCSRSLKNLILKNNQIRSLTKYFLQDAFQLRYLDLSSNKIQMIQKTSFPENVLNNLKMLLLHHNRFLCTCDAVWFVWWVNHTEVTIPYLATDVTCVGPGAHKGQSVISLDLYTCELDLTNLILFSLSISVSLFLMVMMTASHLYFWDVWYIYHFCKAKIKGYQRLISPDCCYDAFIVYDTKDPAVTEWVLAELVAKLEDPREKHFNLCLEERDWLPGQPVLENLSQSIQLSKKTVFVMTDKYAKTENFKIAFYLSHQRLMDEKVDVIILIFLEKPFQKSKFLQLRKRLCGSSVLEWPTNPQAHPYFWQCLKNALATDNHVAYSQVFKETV
Description: HEK293-Blue-hTLR-7 cells assay:
A stable HEK293-Blue-hTLR-7 cell line was purchased from InvivoGen (Cat. #: hkb-htlr7, San Diego, Calif., USA). These cells were originally designed for studying the stimulation of human TLR7 by monitoring the activation of NF-κB. A SEAP (secreted embryonic alkaline phosphatase) reporter gene was placed under the control of the IFN-β minimal promoter fused to five NF-κB and AP-1-binding sites. The SEAP was induced by activating NF-κB and AP-1 via stimulating HEK-Blue hTLR7 cells with TLR7 ligands. Therefore the reporter expression was declined by TLR7 antagonist under the stimulation of a ligand, such as R848 (Resiquimod), for incubation of 20 hrs. The cell culture supernatant SEAP reporter activity was determined using QUANTI-Blue™ kit (Cat. #: rep-qb1, Invivogen, San Diego, Ca, USA) at a wavelength of 640 nm, a detection medium that turns purple or blue in the presence of alkaline phosphatase.
HEK293-Blue-hTLR7 cells were incubated at a density of 250,000-450,000 cells/mL in a volume of 170 μL in a 96-well plate in Dulbecco's Modified Eagle's medium (DMEM) containing 4.5 g/L glucose, 50 U/mL penicillin, […], […], 2 mM L-glutamine, 10% (v/v) heat-inactivated fetal bovine serum with addition of 20 μL test compound in a serial dilution in the presence of final DMSO at 1% and 10 μL of 20 uM R848 in above DMEM, perform incubation under 37° C. in a CO2 incubator for 20 hrs. Then 20 μL of the supernatant from each well was incubated with 180 μL Quanti-blue substrate solution at 37° C. for 2 hrs and the absorbance was read at 620˜655 nm using a spectrophotometer. The signaling pathway that TLR7 activation leads to downstream NF-κB activation has been widely accepted, and therefore similar reporter assay was modified for evaluating TLR7 antagonist.

CYP2D6 = target: T2, CYP2D6 (Homo sapiens, UniProt P10635); assay: CYP inhibition assay in human liver microsome; type: in vitro ADME; conditions: human liver microsomes, probe dextromethorphan, dextromethorphan substrate, percentage inhibition <0: not or weak inhibitor, read-out: CYP 2D6 inhibition % @ 10 μM
T2 construct: tissue BD-Gentest 452117; host or cells: human liver microsomes
Protocol: This is a high throughput screening assay used for assessment of reversible inhibition of CYP2D6 activity of test compounds in human liver microsome (HLM) in early discovery stage.
10 mM DMSO stock solutions of test compounds were diluted in DMSO to generate 2 mM intermediate stock solution. 250 nL of intermediate stock solution were transferred in duplicate into 3 separate 384 well microtitre plates (assay-ready plates). A mixture of HLM and each substrate was made up. 45 μL of HLM substrate mix was then transferred to each well of an assay ready plate and mixed. The negative (solvent) and positive control (standard inhibitor for CYP 2D6) were included in each assay ready plate. The assay ready plate was warmed to 37° C. in an incubator over 10 minutes. 5 μL pre-warmed NADPH regenerating system was added to each incubation well to start the reaction. Final incubation volume was 50 μL. The assay plate then was placed back in the 37° C. incubator. After 10 minutes incubation, incubates were quenched by addition of 50 μL 100% acetonitrile containing internal standards (20 ng/mL D3-Dextrorphan). The supernatants were collected for RapidFire/MS/MS analysis.
RapidFire online solid phase extraction/sample injection system (Agilent) coupled with API4000 triple quadrupole mass spectrometer (AB Sciex) were used for sample analysis. The mobile phase composed of acetonitrile and water supplemented with 0.1% formic acid. A C4 solid phase extraction cartridge is used for sample separation. MS detection is achieved in positive ion MRM mode.
Peak areas for substrate, metabolite and internal standard are determined using the RapidFire integrator software (version 3.6.12009.12296). Peak area ratios (PAR) of metabolite and internal standard (stable-labelled metabolite) are then calculated. The measurement window for each experiment is then defined:
PAR (0% activity)=average PAR for all incubations containing concentrated inhibitor;
Par (100% activity)=average PAR for all incubations containing no inhibitor (DMSO controls);
% Activity (test inhibitor)=
[PAR(test inhibitor)−PAR(0% activity)]/[PAR(100% activity)−PAR(0% activity)]; % Inhibition (test inhibitor)=100−% Activity (test inhibitor).

T2 sequence (P10635 whole entry): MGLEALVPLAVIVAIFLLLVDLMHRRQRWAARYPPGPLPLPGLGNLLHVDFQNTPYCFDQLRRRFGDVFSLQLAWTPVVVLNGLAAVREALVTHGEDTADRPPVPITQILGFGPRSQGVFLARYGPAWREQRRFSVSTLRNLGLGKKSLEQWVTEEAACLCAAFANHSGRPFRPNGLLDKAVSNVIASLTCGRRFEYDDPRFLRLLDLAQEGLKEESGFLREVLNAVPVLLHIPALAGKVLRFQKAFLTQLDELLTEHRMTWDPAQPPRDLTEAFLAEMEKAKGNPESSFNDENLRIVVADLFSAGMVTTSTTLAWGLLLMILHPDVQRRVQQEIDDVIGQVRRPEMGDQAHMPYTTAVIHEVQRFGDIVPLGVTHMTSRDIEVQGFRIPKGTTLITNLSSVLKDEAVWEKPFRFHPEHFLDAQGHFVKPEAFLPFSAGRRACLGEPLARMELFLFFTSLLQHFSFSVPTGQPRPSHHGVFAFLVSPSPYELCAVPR

| Structure (SMILES) | IC50 (human TLR7) | inhibition at 10 min, 10 µM (CYP2D6) |
| --- | --- | --- |
| C[C@@H]1CN(c2ccc(C#N)c3ncccc23)C[C@H](CN2CC(n3cc4c(n3)CCN[C@@H]4C)C2)O1 [Example 21, 5-[(2R,6S)-2-methyl-6-[[3-[(4R)-4-methyl-4,5,6,7-tetrahydropyrazolo[4,3-c]pyridin-2-yl]azetidin-1-yl]methyl]morpholin-4-yl]quinoline-8-carbonitrile] | 18 nM | 10.5% |
| C[C@@H]1CN(c2ccc(C#N)c3ncccc23)C[C@H](CN2CC(n3ncc4c3CCN[C@H]4C)C2)O1 [Example 22, 5-[(2R,6S)-2-methyl-6-[[3-[(4S)-4-methyl-4,5,6,7-tetrahydropyrazolo[4,3-c]pyridin-1-yl]azetidin-1-yl]methyl]morpholin-4-yl]quinoline-8-carbonitrile] | 5 nM | 5.5% |

Other lines, results leading:

| IC50 (human TLR7) | inhibition at 10 min, 10 µM (CYP2D6) | Structure (SMILES) |
| --- | --- | --- |
| 13 nM | 3% | C[C@@H]1CN(c2ccc(C#N)c3ncccc23)C[C@H](CN2CC(n3cc4c(n3)CCN[C@H]4C)C2)O1 [Example 23, 5-[(2R,6S)-2-methyl-6-[[3-[(4S)-4-methyl-4,5,6,7-tetrahydropyrazolo[4,3-c]pyridin-2-yl]azetidin-1-yl]methyl]morpholin-4-yl]quinoline-8-carbonitrile] |
| 18 nM | 20.3% | C[C@@H]1CN(c2ccc(C#N)c3ncccc23)C[C@H](CN2CCC(n3cc4c(n3)CCNC4)CC2)O1 [Example 36, 5-[(2R,6S)-2-methyl-6-[[4-(4,5,6,7-tetrahydropyrazolo[4,3-c]pyridin-2-yl)-1-piperidyl]methyl]morpholin-4-yl]quinoline-8-carbonitrile] |
| 7 nM | 17.5% | Cc1nn(C2CN(C[C@H]3CN(c4ccc(C#N)c5ncccc45)C[C@@H](C)O3)C2)c2c1CCNC2 [Example 42, 5-[(2R,6S)-2-methyl-6-[[3-(3-methyl-4,5,6,7-tetrahydropyrazolo[3,4-c]pyridin-1-yl)azetidin-1-yl]methyl]morpholin-4-yl]quinoline-8-carbonitrile] |
